Here are results for two compounds from patent publication US12000825B2, “Method of selecting stem cells having ability to produce extracellular vesicles with high efficiency using activation of protease-activated receptor-mediated signaling pathways” (SAMSUNG LIFE PUBLIC WELFARE FOUNDATION, priority 2019, dated 2024).

Entries after “also recorded” stand apart in the source; their conditions may differ.

Assay [1] has as its system Human umbilical cord blood-derived mesenchymal stem cells (MSCs). Kind of assay: Bioplex assay / ELISA of proteins in EVs (VEGF, angiogenin, angiopoietin-1, HGF). The assay is classed as cell-based. As for the experimental part: (§1) To pretreat the umbilical cord blood-derived mesenchymal stem cells with thrombin, first, the mesenchymal stem cells were cultured in α-MEM (Gibco, Grand Island, NY, USA) supplemented with 10% (v/v) fetal bovine serum (FBS, Gibco), 100 units/mL penicillin, and 100 μg/mL streptomycin (Invitrogen, Carlsbad, CA, USA) under standard culture conditions. When the cells reached approximately 90% confluency in a culture plate, the cells were washed three times with phosphate buffered saline (PBS) to remove contaminated FBS-derived exosomes, and were then incubated in new serum-free α-MEM supplemented with human recombinant thrombin (1 U/mL, 2 U/mL, and 4 U/mL; Sigma-Aldrich, St. Louis, MO, USA) for 6 hours. After the medium was collected, about 2×10^6 cells per 100 mm culture dish was counted using a Luna-FL™ system (Logos Biosystems, Anyang-si, Korea).
To analyze the cytokine levels of EVs by ELISA, an experiment was conducted using the following method. Specifically, a homogenate of isolated EVs was added to a well containing 0.1 mL of lysis buffer in an ELISA kit. Subsequently, proteins in EVs were quantified using the Bradford method, and then 1 μg of protein was loaded into each well. Thereafter, the levels of angiogenin, angiopoietin-1, VEGF, and HGF, which are present in EVs, were quantified using the Fluorokine® MAP Human Angiogenesis Custom Premix Kit A (R & D Systems, Minneapolis, MN, USA).
Background: ELISA stands for enzyme-linked immunosorbent assay.

For assay [2] the test system is unchanged. Kind of assay: Early endosome labeling (CellLight Early Endosomes-GFP). Type of assay: cell-based. As for the experimental part: Early endosomes were labeled using CellLight® reagent-green fluorescent protein (GFP), BacMam 2.0 (Thermo Fisher Scientific, San Jose, CA, USA) according to the manufacturer's instructions. Briefly, mesenchymal stem cells were dispensed in a 12-well plate at a density of 1.5×10^4 per well, and after cells were attached, BacMam 2.0 reagent was added at a concentration of 40 particles per cell (PPC). Next, to measure Rab5α-GFP expression, early endosomes were labeled using CellLight® early endosomes-GFP, BacMam 2.0. Thereafter, to estimate the number of GFP-labeled endosomes, the optical density of green immunofluorescence was measured using ImageJ (National Institutes of Health, Bethesda, MD, USA).

Assay [3] shares this test system. Kind of assay: Isolation and quantification of extracellular vesicles (NanoSight). The assay is classed as cell-based. Conditions: for production of EVs: 6 hours, FIG. 1A. As for the experimental part: as §1
To isolate extracellular vesicles (hereinafter, referred to as EVs) secreted by the umbilical cord blood-derived mesenchymal stem cells pretreated with thrombin according to the method of Example 1-1, an experiment was conducted according to the following processes. Specifically, the above recovered medium was centrifuged at 3,000 rpm and 4° C. for 30 minutes to remove cell debris, and then centrifuged at 100,000 rpm and 4° C. for 120 minutes to precipitate EVs. Then, the precipitated pellet was washed twice, re-suspended in sterile PBS, and stored at −80° C. until use.
The distribution of EVs was analyzed by measuring the rate of Brownian motion using NanoSight (NanoSight NS300; Malvern, Worcestershire, UK), which is equipped with fast video capture and particle-tracking software. The obtained EVs were re-suspended in PBS (500 μl, 1 mg/mL total protein), and size and polydispersity thereof were measured. In addition, to quantify the production of EVs by a single cell, cells were counted using a LUNA-FL system according to the manufacturer's protocol using the medium recovered above. The number of EVs produced by a single cell was calculated by dividing the total number of EVs by the number of cells.

Assay [4] concerns ERK1/2 and AKT signaling pathways. Kind of assay: Immunoblot of ERK1/2 and AKT phosphorylation. The assay is classed as cell-based, human. As for the experimental part: (§2) Umbilical cord blood-derived mesenchymal stem cells and EVs were lysed by adding an equal volume of RIPA buffer (Sigma-Aldrich, St. Louis, MO, USA). The protein contents of the lysates were quantified using the Bradford method, and samples containing 10 μg of proteins were mixed with loading buffer containing β-mercaptoethanol, boiled for 10 minutes, and separated according to size by 12% SDS-polyacrylamide gel electrophoresis (SDS-PAGE). Subsequently, the separated proteins were transferred to nitrocellulose membranes, and then a 5% bovine serum albumin (BSA) solution was prepared with 0.5% Tween-20-containing 1×PBS-T, the membranes were blocked therewith at room temperature, followed by treatment with primary antibodies and incubation at room temperature for 1 hour. After incubation, the membranes were washed with 1×PBS-T, followed by incubation with anti-mouse or anti-rabbit horseradish peroxidase-conjugated immunoglobulin G (1:2000) secondary antibodies while being stirred at room temperature for 1 hour. Subsequently, after washing with PBS-T, protein bands were detected using an ECL Select chemiluminescence reagent (GE Healthcare Life Sciences, Piscataway, NJ, USA), and band images were acquired with X-ray films.
(In general: In western blotting, separated proteins are transferred to a membrane and probed.)

The test system of the next assay is Rab-5 and EEA-1. Kind of assay: Immunoblot of early endosome markers. The assay is classed as cell-based, human. As for the experimental part: as §2
For assay [5], the system named is Human umbilical cord blood-derived mesenchymal stem cells (MSCs). Kind of assay: Observation of EVs by SEM and TEM. Type of assay: cell-based. Conditions: thrombin-pretreated vs not treated, FIG. 1D. As for the experimental part:
EVs (5 μl) were fixed with 2% glutaraldehyde, loaded on 200-mesh formvar/carbon-coated electron microscopy grids (Electron Microscopy Sciences, Washington, PA, USA), and incubated for 10 minutes. Subsequently, the EVs were washed with filtered distilled water and stained with 2% uranyl acetate in water for 1 minute. Thereafter, the stained EVs were observed using a Tecnai Spirit G2 transmission electron microscope (FEI, Hillsboro, OR, USA) operating at 120 kV, and then an image thereof was acquired.
Meanwhile, to observe isolated EVs using a scanning electron microscope, EVs were fixed in 2.5% glutaraldehyde and loaded on a polycarbonate membrane. Next, the membrane was washed once with PBS and water and then dehydrated with acetone. Subsequently, the acetone was removed by critical point drying using liquid carbon dioxide. Samples were mounted on aluminum stubs with carbon tape and mounted on an SEM stub. After sputter coating with 3-5 nm platinum, the samples were observed using a scanning electron microscope (Zeiss Auriga Workstation, Oberkochen, Germany) and images thereof were acquired.

Where [6] appears, read: compared to no thrombin, in proportion to thrombin concentration.

Turning to thrombin, the “levels of proteins in extracellular vesicles, increase” value in assay [1] (setting [6]) is reported as not below 2 fold. The “levels of VEGF, angiogenin, angiopoietin-1 and HGF in EVs” value in assay [1] (thrombin 2 U/mL and 4 U/mL vs not treated, FIG. 1B) is recorded as “significantly increased”. For the same compound, the “level of early endosomes” value in assay [2] (thrombin-pretreated vs naive, FIG. 1C) is given as “significantly increased; also recorded: significantly high level”. Besides, the “amount of produced extracellular vesicles, increase” value in assay [3] (setting [6]) is recorded as not below 5 fold. Also, the “production of EVs” value in assay [3] (thrombin 1-4 U/mL) is “increased in a thrombin concentration-dependent manner”; in assay [3] (thrombin 2 U/mL and 4 U/mL), “significantly increased”. The “number of isolated EVs” value in assay [3] (thrombin-pretreated vs not treated, FIG. 1E) was “greater number”. The “expression of non-phosphorylated ERK1/2 and AKT” value in assay [4] (thrombin treatment, not statistically significant, FIG. 3B) is on record as “tended to increase slightly”. Besides, in assay [4] (thrombin-pretreated vs not treated, FIG. 3B), the “expression of pERK1/2 and pAKT (phosphorylation of ERK1/2 and AKT)” value was “significantly increased”. In addition, the “expression levels of early endosome markers Rab-5 and EEA-1” value in the assay on Rab-5 and EEA-1 (thrombin treatment vs none, FIG. 3A) is “significantly increased”. Further, in assay [5], the “EVs observed by SEM/TEM” value is recorded as “more EVs were observed”.
For the compound `CC(C)c1ccc(Cn2ccc3c4c(N)nc(NC5CC5)nc4ccc32)cc1.Cl.Cl` [SCH79797, N3-cyclopropyl-7-[[4-(1-methylethyl)phenyl]methyl]-7H-pyrrolo[3,2-f]quinazolin-1,3-diamine dihydrochloride, reference compound], the “increase in the levels of proteins in EVs, comparison” value in assay [1] (compared to transfection with PAR3 siRNA, FIG. 5D) is reported as “inhibited at a higher level”. The “increase in the levels of VEGF, angiogenin, angiopoietin-1 and HGF in EVs” value in assay [1] (thrombin-pretreated MSCs, SCH79797 1 μM, FIG. 5D) is recorded as “significantly inhibited”. In assay [2] (compared to transfection with PAR3 siRNA, FIG. 5A), the “increase in the number of early endosomes by thrombin, comparison” value is “more significantly inhibited”. Besides, the “increase in the number of early endosomes by thrombin treatment” value in assay [2] (thrombin-pretreated MSCs, SCH79797 1 μM, FIG. 5A) is recorded as “significantly inhibited”. In addition, the “increase in the number of extracellular vesicles by thrombin, comparison” value in assay [3] (compared to transfection with PAR3 siRNA, FIGS. 5B and 5C) was “inhibited at a higher level”. Further, the “increase in the number of extracellular vesicles by thrombin treatment” value in assay [3] (thrombin-pretreated MSC culture media, SCH79797 1 μM, FIGS. 5B and 5C) is listed as “significantly inhibited”. In assay [4] (compared to PAR-3-specific siRNA treatment, FIG. 4B), the “increase in phosphorylation of ERK1/2 and AKT by thrombin, comparison” value is on record as “inhibited at a more significant level”. Also, in assay [4] (thrombin-pretreated MSCs, SCH79797 1 μM, FIG. 4B), the “increase in phosphorylation of ERK1/2 and AKT by thrombin pretreatment” value was “significantly inhibited”. For the same compound, the “expression levels of Rab-5 and EEA-1, comparison” value in the assay on Rab-5 and EEA-1 (thrombin-pretreated MSCs, compared to the PAR3 siRNA-treated group, FIG. 4A) was “further reduced”. In the assay with Rab-5 and EEA-1 (thrombin-pretreated MSCs, compared to thrombin alone, SCH79797 1 μM, FIG. 4A), the “expression levels of Rab-5 and EEA-1” value is “significantly reduced”.
